From patent publication US10016480B2, “Peptide-based methods for treating pancreatic cancer” (The United States of America, as represented by the …, priority 2014, dated 2018) come the findings set out here.

The nature of this data set: Serum stability. In kind it is in vitro ADME.

No end group written: not given here.

As for “FAKKFAKKFK [Peptide B, Phe-Ala-Lys-Lys-Phe-Ala-Lys-Lys-Phe-Lys]”, the stability in serum entry is “stable in serum”.
